Measured values published in PMC5007466, “VCP recruitment to mitochondria causes mitophagy impairment and neurodegeneration in models of Huntington's disease” (Nature Communications, 2016).

Legend:
Format in all cases: cell-based
[1] = test system: HdhQ111 / HdhQ7 mouse striatal cells; assay: VCP mitochondrial level, mouse striatal cells (western blot)
Experimental: Immortalized striatal cell lines HdhQ111 mutant and HdhQ7 wt cells were obtained from the CHDI Foundation. Cells were cultured in DMEM supplemented with 10% FBS, 100 μg/ml penicillin, 100 μg ml^−1 streptomycin, and 400 μg ml^−1 G418. Cells were grown at 33 °C in a 5% CO2 incubator. Cells within 14 passages were used in all experiments.
For silencing Htt and VCP in HD striatal cells, control siRNA, mouse Htt and mouse VCP siRNA were purchased from Thermo Fisher Scientific. HdhQ7 and HdhQ111 cells were transfected either with control siRNA, or Htt or VCP siRNA using TransIT-TKO Transfection Reagent (Mirus Bio, LLC), according to the manufacturer's instructions. The sequences for the siRNAs used in this study are as follows: mouse Htt, 5′-[…]-3′; Mouse VCP, 5′-GAGAGCAACCUUCGUAAG-3′; control non-targeting siRNA, 5′-TTCTCCGAACGTGTCACGT-3′.
Cells were washed with cold PBS and incubated on ice for 30 min in a lysis buffer (250 mM sucrose, 20 mM HEPES-NaOH, pH 7.5, 10 mM KCl, 1.5 mM MgCl2, 1 mM EDTA, protease inhibitor cocktail and phosphatase inhibitor cocktail). Mouse brains were minced and homogenized in the lysis buffer and then placed on ice for 30 min. Collected cells or tissue were disrupted 20 times by repeated aspiration through a 25-gauge needle, followed by a 30-gauge needle. The homogenates were spun at 800 g for 10 min at 4 °C, and the resulting supernatants were spun at 10,000 g for 20 min at 4 °C. The pellets were washed with lysis buffer and spun at 10,000 g again for 20 min at 4 °C. The final pellets were suspended in lysis buffer containing 1% Triton X-100 and were mitochondrial-rich lysate fractions. The supernatant was centrifuged at 100,000 g, 4 °C, for 1 h, the pellets were suspended in lysis buffer containing 1% Triton X-100 as ER fractions. The final supernatant was cytosolic fractions. The mitochondrial proteins VDAC, the ER protein WFS1 and the cytosolic protein Enolase were used as loading controls for mitochondrial, ER and cytosolic fractions, respectively.
Protein concentrations were determined by Bradford assay. […]

[2] = test system: HdhQ111 / HdhQ7 mouse striatal cells; assay: LDH release (cell death) after serum withdrawal
Experimental: HdhQ7 and Q111 mouse striatal cells were treated with the HV-3 peptide or the control peptide TAT (3 μM, each) in an FBS-free DMEM medium or in DMEM containing 10% serum for 24 h. Medium from the cultured cells was harvested. Proteins from the medium were purified using Amicon Ultra 0.5 ml centrifugal filters (Millipore). HMGB1 release into the medium was then analysed by Western blotting with anti-HMGB1 antibody. In parallel, cell death was determined by measuring LDH release into the culture medium, using LDH-Cytotoxicity Assay Kit II (Roche, USA) by following the manufacturer's instruction.

[3] = test system: HdhQ111 mouse striatal cells; assay: GFP-LC3B puncta; conditions: 3 uM/day for 3 days
Experimental: Figure 5 Treatment of HV-3 reduces excessive mitophagy in HD cell cultures and HD mouse brains. (a) HdhQ7 and HdhQ111 cells were treated with control siRNA (con) or VCP siRNA (siVCP) for 48 h. Mitochondria were isolated and LC3 mitochondrial levels were determined by WB. Representative blots are from three independent experiments. The quantitation of LC3 II levels on mitochondria is provided on the right. VADC was used as a loading control. (b) Flag-VCP and GFP-LC3B were co-transfected into wild-type striatal cells. Mitochondria were isolated after 36 h of transfection. The GFP-LC3B levels on mitochondria were examined by WB. VDAC was used as a loading control. Representative blots are from three independent experiments. Histogram: quantitation of GFP-LC3B mitochondrial protein level. HdhQ7 and HdhQ111 cells were treated with control peptide TAT or peptide HV-3 (3 uM/day for 3 days). (c) HdhQ111 cells were transfected with GFP-LC3B for 24 h. The number of GFP-LC3B puncta was quantitated and shown in the histogram. Scale bars: 10 μm. (d) Enzyme activity of lysosomal Cathepsin B was measured using a Cathepsin B assay kit. […] (e) Mitochondrial mass was measured by the fluorescent density of Mitotracker green. […] Histogram: the number of mitophagosomes per 100 μm^2 was counted and quantitated. Fifteen random areas in the striatum of each animal were analyzed. […]

[4] = wt counterparts of the HD models

## CSCC[C@H](NC(=O)[C@@H](NC(=O)[C@H](CC(C)C)NC(=O)[C@@H](NC(=O)[C@H](Cc1c[nH]cn1)NC(=O)CCCCCNC(=O)[C@H](CCCNC(=N)N)NC(=O)[C@H](CCCNC(=N)N)NC(=O)[C@H](CCCNC(=N)N)NC(=O)[C@H](CCC(N)=O)NC(=O)[C@H](CCCNC(=N)N)NC(=O)[C@H](CCCNC(=N)N)NC(=O)[C@H](CCCCN)NC(=O)[C@H](CCCCN)NC(=O)[C@H](CCCNC(=N)N)NC(=O)CNC(=O)[C@@H](N)Cc1ccc(O)cc1)C(C)C)C(C)C)C(=O)N[C@@H](CS)C(=O)N[C@@H](C)C(=O)N[C@H](C(N)=O)[C@@H](C)O [HV-3]
[1]; HdhQ111 cells, HV-3 3 μM per day for 3 days versus TAT, n=3
  VCP translocation to mitochondria: abolished VCP translocation to the mitochondria
[1]; [4]
  VCP mitochondrial levels, wt: only minor effects
[2]; HdhQ111 cells, 24 h serum withdrawal, 3 μM
  LDH release: reduced the release of high mobility group box 1 (HMGB1) and lactate dehydrogenase (LDH)
[2]; [4]
  cell survival rate, wt: only minor effects
[3]
  number of GFP-LC3B puncta: reduced by treatment with HV-3
